Results published in PMC9036659, “Boron-containing capsaicinoids” (RSC Advances, 2021).

Key:
[1] = tested on: human breast adenocarcinoma cells (ATCC HTB-26 MDA-MB 231); test: Cytotoxicity assay (Alamar blue), HTB-26; format: cell-based
Description: (§1) The cells (human foreskin BJ fibroblast cells (ATCC CRL-2522), green monkey kidney cells Vero (ATCC CCL-81), human breast adenocarcinoma cells (ATCC HTB-26 MDA-MB 231), human breast adenocarcinoma cells (MCF7 ATCC HTB-22), and human colorectal carcinoma cells (HCT116 ATCC CCL-247)) were grown to 80% confluency, the cells were counted, diluted, and plated into treated 96-well cell culture plates. The BJ fibroblast and Vero cells were plated at a cell density of 10 000 cells per well and the HTB26, HCT116 and MCF7 cells were plated at cell density of 5000 cells per well in 90 μL of respective growth medium (without the addition of antibiotics) and incubated for 24 h to allow cells to adhere to the plates before treatment. Pure compounds were tested in triplicate in serial dilutions of seven concentrations ranging from 2 to 128 μg mL^−1 per well (final well volume of 100 μL, 1% DMSO per well). Each of the cell lines were incubated at 37 °C in a humidified atmosphere of 5% CO2; the BJ fibroblast and Vero cells for 24 h and the HTB-26, HCT116 and MCF7 cells for 72 h. Each plate contained four uninoculated positive controls, four untreated negative controls, and one column containing a concentration range for doxorubicin. Alamar blue was added, 24 h after the treatment, and fluorescence was monitored using a Cytation Gen 5 plate reader using 560 nm Ex/590 Em both at time zero and 4 h after Alamar blue addition. The inferred percentage of cell viability relative to vehicle control wells were calculated after subtracting the time zero emission 590 nm measurement from the final reading and the IC50 was determined. […]
(§2) Cytotoxicity Assay Data Alamar blue was added, 24 h after the treatment, and fluorescence was monitored using a Cytation Gen 5 plate reader using 560 nm Ex/590 Em both at time zero and 4 h after Alamar blue addition. The inferred percentage of cell viability relative to vehicle control wells were calculated after subtracting the time zero emission 590 nm measurement from the final reading and the IC50 was determined.

[2] = tested on: Proteus vulgaris (ATCC 12454); test: Antimicrobial assay, P. vulgaris (OD600); format: cell-based
Description: (§3) The microorganisms (methicillin-resistant S. aureus MRSA 310, vancomycin-resistant E. faecium VRE 379, S. warneri (ATCC 17917), P. vulgaris (ATCC 12454), P. aeruginosa (ATCC 14210), and C. albicans (ATCC 14035)) were grown overnight on agar media. The following day the cultures were transferred into 0.9% saline water into a sterile glass tube. Using the McFarland reader, the turbidity was determined and further diluted into their respective media. The pure compounds were tested at seven different concentrations ranging from 2 to 128 μg mL^−1 in triplicate. Samples were plated into 96 well plates (10 μL in 20% DMSO) and then diluted pathogen (90 μL) was pipetted into the pre-prepared sample plates yielding 5 × 10^5 cfu mL^−1 with a final volume of 100 μL. Antibiotics that are active against specific pathogens were used as positive controls. The plates were incubated into a 37 °C incubator for 22 h. Growth of S. warneri. P. vulgaris, P. aeruginosa and C. albicans were measured by reading optical density (OD600), or in the case of slow growing microorganisms (MRSA and VRE), PrestoBlue was used to assess metabolic activity by measuring fluorescence (535–560)/(590–615) (excitation/emission) using a Thermo Scientific Varioskan Flash plate reader at time zero and then again after incubation of the plates for 22 h at 37 °C. After subtracting the time zero OD600 from the final reading, the percentages of microorganism survival relative to vehicle control wells were calculated. […]
(§4) Antimicrobial Assay Data Growth of S. warneri. P. vulgaris, P. aeruginosa and C. albicans were measured by reading optical density (OD600), or in the case of slow growing microorganisms (MRSA and VRE), PrestoBlue was used to assess metabolic activity by measuring fluorescence (535-560)⁄(590-615) (excitation/emission) using a Thermo Scientific Varioskan Flash plate reader at time zero and then again after incubation of the plates for 22 h at 37 °C. After subtracting the time zero OD600 from the final reading, the percentages of microorganism survival relative to vehicle control wells were calculated. […]

[3] = tested on: Staphylococcus warneri (ATCC 17917); test: Antimicrobial assay, S. warneri (OD600); format: cell-based
Description: as §3, §4

[4] = tested on: human breast adenocarcinoma cells (MCF7 ATCC HTB-22); test: Cytotoxicity assay (Alamar blue), MCF7; format: cell-based
Description: as §1, §2

[5] = tested on: human foreskin BJ fibroblast cells (ATCC CRL-2522); test: Cytotoxicity assay (Alamar blue), BJ; format: cell-based; conditions: 24 h incubation; average ± SD; Inactive = inhibition above 300 μM
Description: as §1, §2

[6] = tested on: Pseudomonas aeruginosa (ATCC 14210); test: Antimicrobial assay, P. aeruginosa (OD600); format: cell-based
Description: as §3, §4

[7] = tested on: Candida albicans (ATCC 14035); test: Antimicrobial assay, C. albicans (OD600); format: cell-based
Description: as §3, §4

[8] = tested on: green monkey kidney cells Vero (ATCC CCL-81); test: Cytotoxicity assay (Alamar blue), Vero; format: cell-based; conditions: 24 h incubation; average ± SD; Inactive = inhibition above 300 μM
Description: as §1, §2

[9] = tested on: vancomycin-resistant Enterococcus faecium VRE 379; test: Antimicrobial assay, VRE (PrestoBlue fluorescence); format: cell-based
Description: as §3, §4

[10] = tested on: methicillin-resistant Staphylococcus aureus MRSA 310; test: Antimicrobial assay, MRSA (PrestoBlue fluorescence); format: cell-based
Description: as §3, §4

[11] = tested on: human colorectal carcinoma cells (HCT116 ATCC CCL-247); test: Cytotoxicity assay (Alamar blue), HCT116; format: cell-based
Description: as §1, §2

For `CCCCCC(=O)N(Cc1ccc(OC)c(OC)c1)c1ccc(B2OC(C)(C)C(C)(C)O2)cc1` [Compound 23, N-(3,4-dimethoxyphenylmethyl)-N-[4-(4,4,5,5-tetramethyl-1,3,2-dioxaborolan-2-yl)phenyl]-hexanamide], the “cytotoxic activity against HTB-26 MDA-MB 231 (in words)” value [1] was “selective but low to moderate activity”, the IC50 ([1]; Homo sapiens, HTB26, 72 h incubation, average ± SD, Inactive = inhibition above 300 μM, read-out: IC50 HTB (cancer cell line)) was 85.8 ± 7.1 µM and the “antimicrobial activity against P. vulgaris (in words)” value [2] was “inactive”. For the same compound, the melting point was 51.5 to 53.5 °C, the “antimicrobial activity against S. warneri (in words)” value [3] was “inactive” and the “cytotoxic activity against MCF7 (in words)” value [4] was “selective but low to moderate activity”. For the same compound, the “IC50 MCF7 (cancer cell line)” value ([4]; 72 h incubation, average ± SD, Inactive = inhibition above 300 μM) was “Inactive”, the “IC50 BJ (normal cell line)” value [5] was “Inactive” and the “antimicrobial activity against P. aeruginosa (in words)” value [6] was “inactive”. For the same compound, the “antimicrobial activity against C. albicans (in words)” value [7] was “inactive”, the “IC50 Vero (normal cell line)” value [8] was “Inactive” and the “antimicrobial activity against VRE (in words)” value [9] was “inactive”. For the same compound, the “antimicrobial activity against MRSA (in words)” value [10] was “inactive”, the “cytotoxic activity against HCT116 (in words)” value [11] was “selective but low to moderate activity” and the IC50 ([11]; Homo sapiens, HCT-116, 72 h incubation, average ± SD, Inactive = inhibition above 300 μM, read-out: IC50 HCT (cancer cell line)) was 118 ± 4.9 µM.
